Measured values: patent publication US5536645A, “Nutritive medium for the culture of microorganism” (priority 1993, dated 1996)
Read-outs that look alike come from different tables or passages of the source. Each block holds one molecule with its values, some of them ahead of it.

Assays:
Type in all cases: cell-based
E. faecalis = test: Equivalent MIC of antibiotics in VITEK cards, gram-positive bacteria (Table 4); settings: for MIC: Enterococcus faecalis, 12 h
Method: (§1) With the determination of the sensitivity to antibiotics in mind, a suspension of 0.5 MF (Mac Farland) in physiological water was prepared from bacterial colonies selected in Petri dishes, reading being carried out on an ATB 1550 densitometer marketed by BIOMERIEUX (ATB trade mark). The suspension obtained was respectively diluted to 1/100th in the medium of the invention and Mueller-Hinton medium. VITEK cards (VITEK trade mark) containing different antibiotics at 10 concentrations were filled in vacuo into a VITEK apparatus marketed by BIOMERIEUX-VITEK. The cards were incubated for 12 hours in a VITEK incubator/reader marketed by BIOMERIEUX-VITEK. The growth kinetics were visualized and interpreted and an equivalent MIC was determined (equivalent MIC: equivalent minimum inhibitory concentration, that is to say the smallest concentration for which no bacterial growth is detected by the apparatus).
(§2) IST refers to the medium of the invention and MH signifies Mueller-Hinton medium.
(§3) *A range of concentration, of ratio 2, was tested for each antibiotic in
(§4) each of the abovementioned concentration margins.
(§5) S, I and R respectively signify "sensitive", "intermediate" and "resistant" with reference to the critical concentrations defined by the NCCLS (National Committee for Clinical Laboratory Standards).

S. epidermidis = test: microbe, parasite or virus in culture; settings: for MIC: Staphylococcus epidermidis, 12 h, read-out: Equivalent MIC
Method: as §1, §2, §3, §4, §5

S. aureus = test: microbe, parasite or virus in culture; settings: for MIC: Staphylococcus aureus, read-out: Equivalent MIC
Method: as §1, §2, §3, §4, §5

K. pneumoniae = test: Equivalent MIC of antibiotics in VITEK cards, gram-negative bacteria (Table 3); settings: for MIC: Klebsiella pneumoniae, 12 h
Method: as §1, §2, §5

S. marcescens = test: as above; settings: for MIC: Serratia marcescens, 12 h, read-out: Equivalent MIC
Method: as §1, §2, §5

[1] = ATCC29213, 12 h, ATCC 29213, IST medium
[2] = ATCC29213, 12 h, ATCC 29213, MH medium

SMILES: CC[C@H]1OC(=O)[C@H](C)[C@@H](O[C@H]2C[C@@](C)(OC)[C@@H](O)[C@H](C)O2)[C@H](C)[C@@H](O[C@@H]2O[C@H](C)C[C@H](N(C)C)[C@H]2O)[C@](C)(O)C[C@@H](C)C(=O)[C@H](C)[C@@H](O)[C@]1(C)O [erythromicin]
NCCLS Category (E. faecalis; CDC 2073, IST medium): R | NCCLS Category (E. faecalis; CDC 2073, MH medium): R | NCCLS Category (E. faecalis; CDC 2230, IST medium): I | NCCLS Category (E. faecalis; CDC 2230, MH medium): I | MIC (E. faecalis; CDC 2073, IST medium): 16 µg/mL | MIC (E. faecalis; CDC 2073, MH medium): 16 µg/mL | MIC (E. faecalis; CDC 2230, IST medium): 4 µg/mL | MIC (E. faecalis; CDC 2230, MH medium): 4 µg/mL | NCCLS Category (S. epidermidis; CDC 2024, IST medium): S | NCCLS Category (S. epidermidis; CDC 2024, MH medium): S | NCCLS Category (S. epidermidis; CDC 2105, IST medium): S | NCCLS Category (S. epidermidis; CDC 2105, MH medium): S | NCCLS Category (S. epidermidis; CDC 2234, IST medium): R | NCCLS Category (S. epidermidis; CDC 2234, MH medium): R | MIC (S. epidermidis; CDC 2024, IST medium): 0.5 µg/mL | MIC (S. epidermidis; CDC 2024, MH medium): 0.25 µg/mL | MIC (S. epidermidis; CDC 2105, IST medium): 0.25 µg/mL | MIC (S. epidermidis; CDC 2105, MH medium): 0.25 µg/mL | MIC (S. epidermidis; CDC 2234, IST medium): > 32 µg/mL | MIC (S. epidermidis; CDC 2234, MH medium): > 32 µg/mL | NCCLS Category (S. aureus; ATCC 29213, IST medium): S | NCCLS Category (S. aureus; ATCC 29213, MH medium): S | NCCLS Category (S. aureus; CDC 2194, IST medium): R | NCCLS Category (S. aureus; CDC 2194, MH medium): R | NCCLS Category (S. aureus; CDC 2215, IST medium): S | NCCLS Category (S. aureus; CDC 2215, MH medium): S | MIC (S. aureus; 12 h, CDC 2194, IST medium): > 32 µg/mL | MIC (S. aureus; 12 h, CDC 2194, MH medium): > 32 µg/mL | MIC (S. aureus; 12 h, CDC 2215, IST medium): 0.5 µg/mL | MIC (S. aureus; 12 h, CDC 2215, MH medium): 0.5 µg/mL | MIC (S. aureus; [1]): 0.5 µg/mL | MIC (S. aureus; [2]): 0.25 µg/mL

MIC (K. pneumoniae; API 88.03.111, IST medium): 1 µg/mL | MIC (K. pneumoniae; API 88.03.111, MH medium): 1 µg/mL | MIC (K. pneumoniae; API 88.08.056, IST medium): 4 µg/mL | MIC (K. pneumoniae; API 88.08.056, MH medium): 4 µg/mL | MIC (K. pneumoniae; CDC 2279, IST medium): 0.25 µg/mL | MIC (K. pneumoniae; CDC 2279, MH medium): 0.25 µg/mL | MIC (S. marcescens; API 81.45.111, IST medium): 4 µg/mL | MIC (S. marcescens; API 81.45.111, MH medium): 2 µg/mL | MIC (S. marcescens; API 81.47.110, IST medium): 16 µg/mL | MIC (S. marcescens; API 81.47.110, MH medium): 8 µg/mL
SMILES: CC1COc2c(N3CCN(C)CC3)c(F)cc3c(=O)c(C(=O)O)cn1c23 (centres unmarked) [ofloxacin]
NCCLS Category (K. pneumoniae; API 88.03.111, IST medium): S | NCCLS Category (K. pneumoniae; API 88.03.111, MH medium): S | NCCLS Category (K. pneumoniae; API 88.08.056, IST medium): I | NCCLS Category (K. pneumoniae; API 88.08.056, MH medium): I | NCCLS Category (K. pneumoniae; CDC 2279, IST medium): S | NCCLS Category (K. pneumoniae; CDC 2279, MH medium): S | NCCLS Category (S. marcescens; API 81.45.111, IST medium): I | NCCLS Category (S. marcescens; API 81.45.111, MH medium): S | NCCLS Category (S. marcescens; API 81.47.110, IST medium): R | NCCLS Category (S. marcescens; API 81.47.110, MH medium): R

SMILES: Cc1onc(-c2ccccc2)c1C(=O)N[C@@H]1C(=O)N2[C@@H]1SC(C)(C)[C@@H]2C(=O)O [oxacillin]
NCCLS Category (S. epidermidis; CDC 2234, IST medium): S | NCCLS Category (S. epidermidis; CDC 2234, MH medium): R | MIC (S. epidermidis; CDC 2234, IST medium): 2 µg/mL | MIC (S. epidermidis; CDC 2234, MH medium): 4 µg/mL | NCCLS Category (S. aureus; ATCC 29213, IST medium): S | NCCLS Category (S. aureus; ATCC 29213, MH medium): S | NCCLS Category (S. aureus; CDC 2194, IST medium): S | NCCLS Category (S. aureus; CDC 2194, MH medium): S | NCCLS Category (S. aureus; CDC 2215, IST medium): S | NCCLS Category (S. aureus; CDC 2215, MH medium): S | MIC (S. aureus; 12 h, CDC 2194, IST medium): 1 µg/mL | MIC (S. aureus; 12 h, CDC 2194, MH medium): < 0.5 µg/mL | MIC (S. aureus; 12 h, CDC 2215, IST medium): 1 µg/mL | MIC (S. aureus; 12 h, CDC 2215, MH medium): < 0.5 µg/mL | MIC (S. aureus; [1]): < 0.25 µg/mL | MIC (S. aureus; [2]): < 0.25 µg/mL
